{"source": "patent US20020183384A1", "about": "“Methods of treating nuclear factor-kappa B mediated diseases and disorders” (priority 2001, published 2002)", "data": [{"test_system": "NF-κB mediated transcription", "assay": "NF-κB driven β-lactamase reporter assay in ECV-304 NF-κB.βlaZ cells (AURORA CCF2 fluorescence)", "format": "cell-based, human", "conditions": "Homo sapiens, ECV-304, 6 h, 10 μM compound; ECV-304 NF-κB.βlaZ cells stimulated with 10 ng/mL TNF-α or 100 pg/mL IL-1β, 6 hours at 37° C.; inhibition of maximum blue/green ratio; read-out: Percent Inhibition at 10 μM", "in_short": "(§1)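 Blue/green (460/530 nm, excitation 395 nm) CCF2 emission ratio quantified NF-κB-driven β-lactamase expression in the stably transfected endothelial-like ECV-304 clone 1E8.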", "units": {"inhibition at 10 µM": "%"}, "values": [{"smiles": "CC(C)c1cccc(C(C)C)c1OS(=O)(=O)NC(=O)C1CCc2ccccc2C1", "note": "(stereo not drawn) [Example 165, (1,2,3,4-Tetrahydro-naphthalene-2-carbonyl)-sulfamic acid 2,6-diisopropyl-phenyl ester]", "inhibition at 10 µM": 28.7}, {"smiles": "CCC(C)C(C(=O)NS(=O)(=O)Oc1c(C(C)C)cccc1C(C)C)c1ccccc1", "note": "(stereo not drawn) [Example 167, (3-Methyl-2-phenyl-pentanoyl)-sulfamic acid 2,6-diisopropyl-phenyl ester]", "inhibition at 10 µM": 40}, {"smiles": "CC(C)c1cccc(C(C)C)c1OS(=O)(=O)NC(=O)C1(c2ccccc2)CCCC1", "note": "[Example 168, (1-Phenyl-cyclopentanecarbonyl)-sulfamic acid 2,6-diisopropyl-phenyl ester]", "inhibition at 10 µM": 39.1}, {"smiles": "CCC(C(=O)NS(=O)(=O)Oc1c(C(C)C)cccc1C(C)C)c1ccccc1", "note": "(stereo not drawn) [Example 169, (2-Phenyl-butyryl)-sulfamic acid 2,6-diisopropyl-phenyl ester]", "inhibition at 10 µM": 21.3}, {"smiles": "CC(C)c1cccc(C(C)C)c1OS(=O)(=O)NC(=O)C(c1ccccc1)C1CCCCC1", "note": "(stereo not drawn) [Example 170, (Cyclohexyl-phenyl-acetyl)-sulfamic acid 2,6-diisopropyl-phenyl ester]", "inhibition at 10 µM": 78.6}, {"smiles": "CC(C)c1cccc(C(C)C)c1OS(=O)(=O)NC(=O)C(C)(c1ccccc1)c1ccccc1", "note": "[Example 171, (2,2-Diphenyl-propionyl)-sulfamic acid 2,6-diisopropyl-phenyl ester]", "inhibition at 10 µM": 62.2}, {"smiles": "CC(C)c1cccc(C(C)C)c1OS(=O)(=O)NC(=O)C(c1ccc(Cl)cc1)c1ccc(Cl)cc1", "note": "[Example 172, [Bis-(4-chloro-phenyl)-acetyl]-sulfamic acid 2,6-diisopropyl-phenyl ester]", "inhibition at 10 µM": 86.9}, {"smiles": "CC(C)c1cccc(C(C)C)c1OS(=O)(=O)NC(=O)C1c2ccccc2Oc2ccccc21", "note": "[Example 173, (9H-Xanthene-9-carbonyl)-sulfamic acid 2,6-diisopropyl-phenyl ester]", "inhibition at 10 µM": 36.9}, {"smiles": "CC(C)c1cccc(C(C)C)c1OS(=O)(=O)NC(=O)C1c2ccccc2-c2ccccc21", "note": "[Example 174, (9H-Fluorene-9-carbonyl)-sulfamic acid 2,6-diisopropyl-phenyl ester]", "inhibition at 10 µM": 32.2}, {"smiles": "CC(C)c1cccc(C(C)C)c1OS(=O)(=O)NC(=O)C(Br)c1ccccc1", "note": "(stereo not drawn) [Example 175, (Bromo-phenyl-acetyl)-sulfamic acid 2,6-diisopropyl-phenyl ester]", "inhibition at 10 µM": "< 10"}, {"smiles": "CC(C)c1cccc(C(C)C)c1OS(=O)(=O)NC(=O)CCc1ccccc1", "note": "[Example 176, (3-Phenyl-propionyl)-sulfamic acid 2,6-diisopropyl-phenyl ester]", "inhibition at 10 µM": "< 10"}, {"smiles": "CC(C)c1cc(C(C)C)c(NC(=O)NS(=O)(=O)Oc2c(C(C)C)cccc2C(C)C)c(C(C)C)c1", "note": "[Example 177, Sulfamic acid, [[[2,4,6-tris(1-methylethyl)phenyl]amino]carbonyl]-, 2,6-bis(1-methylethyl)phenyl ester]", "inhibition at 10 µM": 63.6}, {"smiles": "CC(C)c1cc(C(C)C)c(CC(=O)NS(=O)(=O)Oc2c(C(C)C)cc(O)cc2C(C)C)c(C(C)C)c1", "note": "[Example 180, [(2,4,6-Triisopropyl-phenyl)-acetyl]-sulfamic acid 4-hydroxy-2,6-diisopropyl-phenyl ester]", "inhibition at 10 µM": 92}, {"smiles": "CC(C)c1cc(C(C)C)c(CC(=O)N(C)S(=O)(=O)Oc2c(C(C)C)cccc2C(C)C)c(C(C)C)c1", "note": "[Example 181, Methyl-[(2,4,6-triisopropyl-phenyl)-acetyl]-sulfamic acid 2,6-diisopropyl-phenyl ester]", "inhibition at 10 µM": "< 10"}, {"smiles": "CC(C)c1cc(C(C)C)c(CC(=O)NS(=O)(=O)Oc2c(C(C)C)cc([N+](=O)[O-])cc2C(C)C)c(C(C)C)c1", "note": "[Example 182, [(2,4,6-Triisopropyl-phenyl)-acetyl]-sulfamic acid 2,6-diisopropyl-4-nitro-phenyl ester]", "inhibition at 10 µM": 69.8}, {"smiles": "CC(C)c1cc(C(C)C)c(CC(=O)NS(=O)(=O)Oc2c(C(C)C)cc(F)cc2C(C)C)c(C(C)C)c1", "note": "[Example 185, [(2,4,6-Triisopropyl-phenyl)-acetyl]-sulfamic acid 4-fluoro-2,6-diisopropyl-phenyl ester]", "inhibition at 10 µM": 73.9}, {"smiles": "COc1cccc(OC)c1OS(=O)(=O)NC(=O)Cc1c(C(C)C)cc(C(C)C)cc1C(C)C", "note": "[Example 186, [(2,4,6-Triisopropyl-phenyl)-acetyl]-sulfamic acid 2,6-dimethoxy-phenyl ester]", "inhibition at 10 µM": 18.8}, {"smiles": "CC(C)c1cc(C(C)C)c(CC(=O)NS(=O)(=O)Oc2c(C(C)C)cc(N)cc2C(C)C)c(C(C)C)c1", "note": "[Example 187, [(2,4,6-Triisopropyl-phenyl)-acetyl]-sulfamic acid 4-amino-2,6-diisopropyl-phenyl ester]", "inhibition at 10 µM": 57.8}, {"smiles": "CCOC(=O)CCCCCc1cc(C(C)C)c(OS(=O)(=O)NC(=O)Cc2c(C(C)C)cc(C(C)C)cc2C(C)C)c(C(C)C)c1", "note": "[Example 188, 6-(3,5-Diisopropyl-4-{[(2,4,6-triisopropyl-phenyl)-acetyl]sulfamoyloxy}-phenyl)-hexanoic acid ethyl ester]", "inhibition at 10 µM": 50.8}, {"smiles": "COc1cc(OC)c(OS(=O)(=O)NC(=O)Cc2c(C(C)C)cc(C(C)C)cc2C(C)C)c(OC)c1", "note": "[Example 189, [(2,4,6-Triisopropyl-phenyl)-acetyl]-sulfamic acid 2,4,6-trimethoxy-phenyl ester]", "inhibition at 10 µM": 15.1}, {"smiles": "CC(C)c1cc(C(C)C)c(CC(=O)NS(=O)(=O)Oc2c(C(C)C)cc(C(C)(C)C)cc2C(C)C)c(C(C)C)c1", "note": "[Example 190, [(2,4,6-Triisopropyl-phenyl)-acetyl]-sulfamic acid 4-tert-butyl-2,6-diisopropyl-phenyl ester]", "inhibition at 10 µM": 27.6}, {"smiles": "CC(=O)c1ccc(OS(=O)(=O)NC(=O)Cc2c(C(C)C)cc(C(C)C)cc2C(C)C)c(C(C)C)c1", "note": "[Example 191, [(2,4,6-Triisopropyl-phenyl)-acetyl]-sulfamic acid 4-acetyl-2-isopropyl-phenyl ester]", "inhibition at 10 µM": 55.7}]}, {"test_system": "NF-κB mediated transcription", "assay": "NF-κB driven β-lactamase reporter assay in ECV-304 NF-κB.βlaZ cells (AURORA CCF2 fluorescence)", "format": "cell-based, human", "conditions": "Homo sapiens; 10 μM compound; ECV-304 NF-κB.βlaZ cells stimulated with 10 ng/mL TNF-α or 100 pg/mL IL-1β, 6 hours at 37° C.; inhibition of maximum blue/green ratio; read-out: Percent Inhibition at 10 μM", "in_short": "as §1", "units": {"inhibition at 10 µM": "%"}, "values": [{"smiles": "Cc1cc(C)c(C)c(OC(=O)NS(=O)(=O)Oc2c(C(C)C)cccc2C(C)C)c1C", "note": "[Example 166, Carbamic acid, [[2,6-bis(1-methylethyl)phenoxy]sulfonyl]-, 2,3,5,6-tetramethylphenyl ester]", "inhibition at 10 µM": "< 10"}, {"smiles": "CC(C)c1cccc(C(C)C)c1OS(=O)(=O)NC(=O)Oc1cccnc1", "note": "[Example 178, Carbamic acid, [[2,6-bis(1-methylethyl)phenoxy]sulfonyl]-, 3-pyridinyl ester]", "inhibition at 10 µM": "< 10"}, {"smiles": "Cc1cccc(C)c1OC(=O)NS(=O)(=O)Oc1c(C(C)C)cccc1C(C)C", "note": "[Example 179, Carbamic acid, [[2,6-bis(1-methylethyl)phenoxy]sulfonyl]-, 2,6-dimethylphenyl ester]", "inhibition at 10 µM": "< 10"}, {"smiles": "CC(=O)c1cc(C(C)C)c(OC(=O)NS(=O)(=O)Oc2c(C(C)C)cccc2C(C)C)c(C(C)C)c1", "note": "[Example 183, Carbamic acid, [[2,6-bis(1-methylethyl)phenoxy]sulfonyl]-, 4-acetyl-2,6-bis(1-methylethyl)phenyl ester]", "inhibition at 10 µM": "< 10"}, {"smiles": "CC(C)c1cc(F)cc(C(C)C)c1OC(=O)NS(=O)(=O)Oc1c(C(C)C)cccc1C(C)C", "note": "[Example 184, Carbamic acid, [[2,6-bis(1-methylethyl)phenoxy]sulfonyl]-, 4-fluoro-2,6-bis(1-methylethyl)phenyl ester]", "inhibition at 10 µM": 21.2}]}]}
